We go through three molecules from patent US20210323913A1, “SIGMA RECEPTOR BINDERS” (BOARD OF REGENTS, THE UNIVERSITY OF TEXAS SYSTEM, priority 2016, published 2021).

Read-outs that look alike come from different tables or passages of the source. Where only a bound is given, the exact number is not on record here.

As a reminder, the Ki is a dissociation constant, usually derived from enzyme kinetics or from competition with a known ligand.

One test deals with sigma 1 receptor (Homo sapiens, UniProt Q99720). The test can be described thus: Sigma 1 receptor radioligand competition binding. In general terms: Loss of bound radioactivity is the signal in a displacement assay; it reports binding, not function.
The next test deals with MOR (Homo sapiens, UniProt P35372). The test is described as follows: Radioligand competition binding, MOR. The following applies: Table 5; Cheng-Prusoff from best fit IC50.
A further test concerns the target 5-HT2B (Homo sapiens, UniProt P41595). The test is described as follows: Radioligand competition binding, 5-HT2B. The note with it: Table 5; Cheng-Prusoff from best fit IC50.
A further test addresses H2 (Homo sapiens, UniProt P25021). The test is described as follows: Radioligand competition binding, H2. The following applies: Table 5; Cheng-Prusoff from best fit IC50.
For another test, the target named is KOR (Homo sapiens, UniProt P41145). The test is described as follows: Radioligand competition binding, KOR. The following applies: Table 5; Cheng-Prusoff from best fit IC50; some values marked (AVE).
The next test addresses D5 (Homo sapiens, UniProt P21918). The test is described as follows: Radioligand competition binding, D5. The following applies: Table 5; Cheng-Prusoff from best fit IC50.
A further test addresses Alpha2B (Homo sapiens, UniProt P18089). The test can be described thus: Radioligand competition binding, Alpha2B. The following applies: Table 5; Cheng-Prusoff from best fit IC50.
Another test addresses 5-ht5a (Homo sapiens, UniProt P47898). The test is described as follows: Radioligand competition binding, 5-ht5a. The note with it: Table 5; Cheng-Prusoff from best fit IC50.
The target in a further test is 5-HT7 (Homo sapiens, UniProt P34969). The test is described as follows: Radioligand competition binding, 5-HT7. The note with it: Table 5; Cheng-Prusoff from best fit IC50.
The next test has as its target sigma 2 receptor (Homo sapiens, UniProt Q5BJF2). The test can be described thus: Sigma 2 receptor radioligand competition binding. The following applies: for Ki ratio Sig1R/Sig2R: Table 1, ratio of Sig1R Ki to Sig2R Ki.
The next test concerns the target 5-HT2A (Homo sapiens, UniProt P28223). The test is described as follows: Radioligand competition binding, 5-HT2A. The note with it: Table 5; Cheng-Prusoff from best fit IC50.
Another test has as its target T1, D4 (Homo sapiens, UniProt P21917).
T1 sequence (P21917 1-419): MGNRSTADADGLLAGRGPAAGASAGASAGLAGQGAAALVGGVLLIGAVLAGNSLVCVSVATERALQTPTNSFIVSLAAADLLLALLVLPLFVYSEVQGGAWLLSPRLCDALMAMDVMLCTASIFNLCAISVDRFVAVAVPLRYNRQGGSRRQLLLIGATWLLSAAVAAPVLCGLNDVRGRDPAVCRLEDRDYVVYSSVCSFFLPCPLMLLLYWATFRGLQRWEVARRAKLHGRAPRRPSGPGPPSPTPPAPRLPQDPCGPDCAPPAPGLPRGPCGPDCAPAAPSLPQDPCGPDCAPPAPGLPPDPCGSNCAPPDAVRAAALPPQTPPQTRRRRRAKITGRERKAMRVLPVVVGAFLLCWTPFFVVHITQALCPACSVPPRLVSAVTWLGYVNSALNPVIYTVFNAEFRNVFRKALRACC
The test is described as follows: Radioligand competition binding, D4. The following applies: Table 5; Cheng-Prusoff from best fit IC50.

A further test deals with 5-HT6 (Homo sapiens, UniProt P50406). The test is described as follows: Radioligand competition binding, 5-HT6. The note with it: Table 5; Cheng-Prusoff from best fit IC50.
A further test concerns the target M4 (Homo sapiens, UniProt P08173). The test can be described thus: Radioligand competition binding, M4. The note with it: Table 5; Cheng-Prusoff from best fit IC50; one value marked (AVE).
Another test deals with D1 (Homo sapiens, UniProt P21728). The test can be described thus: Radioligand competition binding, D1. The note with it: Table 5; Cheng-Prusoff from best fit IC50; some values marked (AVE).
The next test concerns the target PBR (UniProt P16257). The test can be described thus: Radioligand competition binding, PBR. The note with it: Table 5; Cheng-Prusoff from best fit IC50; one value marked (AVE).
Another test deals with T2, 5-HT1A (Homo sapiens, UniProt P08908).
T2 sequence (P08908 1-422): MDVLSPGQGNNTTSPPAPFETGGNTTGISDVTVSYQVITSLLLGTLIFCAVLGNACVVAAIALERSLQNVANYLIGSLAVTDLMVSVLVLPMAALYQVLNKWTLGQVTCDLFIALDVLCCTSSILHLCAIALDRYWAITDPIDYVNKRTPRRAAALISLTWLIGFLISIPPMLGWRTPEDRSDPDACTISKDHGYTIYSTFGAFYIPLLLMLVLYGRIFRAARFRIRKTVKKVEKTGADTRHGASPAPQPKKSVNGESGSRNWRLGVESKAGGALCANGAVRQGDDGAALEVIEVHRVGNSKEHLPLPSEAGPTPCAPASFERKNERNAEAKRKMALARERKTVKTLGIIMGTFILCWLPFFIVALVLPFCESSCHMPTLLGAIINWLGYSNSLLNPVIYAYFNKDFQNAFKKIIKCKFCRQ
The test is described as follows: Radioligand competition binding, 5-HT1A. The note with it: Table 5; Cheng-Prusoff from best fit IC50.

For a further test, the target named is SERT (Homo sapiens, UniProt P31645). The test is described as follows: Radioligand competition binding, SERT. The following applies: Table 5; Cheng-Prusoff from best fit IC50.
For a further test, the target named is 5-HT1D (Homo sapiens, UniProt P28221). The test can be described thus: Radioligand competition binding, 5-HT1D. The following applies: Table 5; Cheng-Prusoff from best fit IC50.
Another test deals with T3, 5-HT2C (Homo sapiens, UniProt P28335).
T3 sequence (P28335 33-458): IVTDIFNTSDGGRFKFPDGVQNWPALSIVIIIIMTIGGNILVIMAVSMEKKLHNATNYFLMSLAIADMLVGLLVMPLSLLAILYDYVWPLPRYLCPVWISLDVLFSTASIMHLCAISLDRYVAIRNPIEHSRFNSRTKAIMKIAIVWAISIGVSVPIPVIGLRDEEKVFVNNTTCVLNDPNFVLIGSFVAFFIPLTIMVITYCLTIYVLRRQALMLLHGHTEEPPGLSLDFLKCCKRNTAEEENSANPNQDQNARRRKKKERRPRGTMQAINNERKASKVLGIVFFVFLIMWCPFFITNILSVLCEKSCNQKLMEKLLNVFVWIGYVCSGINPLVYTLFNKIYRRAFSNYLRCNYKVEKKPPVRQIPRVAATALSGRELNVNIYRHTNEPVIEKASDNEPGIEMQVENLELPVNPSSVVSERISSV
The test can be described thus: Radioligand competition binding, 5-HT2C. The following applies: Table 5; Cheng-Prusoff from best fit IC50.

Another test addresses 5-HT1B (Homo sapiens, UniProt P28222). The test is described as follows: Radioligand competition binding, 5-HT1B. The note with it: Table 5; Cheng-Prusoff from best fit IC50.
The next test deals with D3 (Homo sapiens, UniProt P35462). The test is described as follows: Radioligand competition binding, D3. The note with it: Table 5; Cheng-Prusoff from best fit IC50; one value marked (AVE).
For another test, the target named is M5 (Homo sapiens, UniProt P08912). The test is described as follows: Radioligand competition binding, M5. The note with it: Table 5; Cheng-Prusoff from best fit IC50.
The target of the next test is H3 (Homo sapiens, UniProt Q9Y5N1). The test can be described thus: Radioligand competition binding, H3. The following applies: Table 5; Cheng-Prusoff from best fit IC50.
The target of the next test is Alpha1D (Homo sapiens, UniProt P25100). The test is described as follows: Radioligand competition binding, Alpha1D. The following applies: Table 5; Cheng-Prusoff from best fit IC50.
Another test has as its target Alpha1A (Homo sapiens, UniProt P35348). The test is described as follows: Radioligand competition binding, Alpha1A. The note with it: Table 5; Cheng-Prusoff from best fit IC50.
The target of another test is H1 (Homo sapiens, UniProt P35367). The test can be described thus: Radioligand competition binding, H1. The note with it: Table 5; Cheng-Prusoff from best fit IC50.
The target of another test is T4, Alpha2A (Homo sapiens, UniProt P08913).
T4 sequence (P08913 1-465): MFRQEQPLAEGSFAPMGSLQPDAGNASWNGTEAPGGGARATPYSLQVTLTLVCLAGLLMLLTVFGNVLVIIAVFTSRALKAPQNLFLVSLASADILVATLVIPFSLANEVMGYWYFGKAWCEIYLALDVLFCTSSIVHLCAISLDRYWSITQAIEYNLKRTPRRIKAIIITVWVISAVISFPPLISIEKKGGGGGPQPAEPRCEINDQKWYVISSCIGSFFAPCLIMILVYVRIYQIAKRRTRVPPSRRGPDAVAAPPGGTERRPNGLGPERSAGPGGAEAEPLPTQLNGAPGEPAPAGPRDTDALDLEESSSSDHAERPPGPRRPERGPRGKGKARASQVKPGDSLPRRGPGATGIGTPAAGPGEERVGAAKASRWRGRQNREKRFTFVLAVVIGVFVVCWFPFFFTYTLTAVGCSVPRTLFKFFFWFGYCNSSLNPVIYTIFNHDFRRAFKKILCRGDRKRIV
The test can be described thus: Radioligand competition binding, Alpha2A. The note with it: Table 5; Cheng-Prusoff from best fit IC50.

The next test deals with H4 (Homo sapiens, UniProt Q9H3N8). The test is described as follows: Radioligand competition binding, H4. The note with it: Table 5; Cheng-Prusoff from best fit IC50; value marked (AVE).
Where [1] appears, read: Table 5, Cheng-Prusoff from best fit IC50, read-out: Ki Sigma 2.
Setting [2] is: Table 1, 7-piperazinyl-tetrahydronaphthalene analogs, read-out: Ki (nM) Sig1R.
Where [3] appears, read: Table 1, 7-piperazinyl-tetrahydronaphthalene analogs, read-out: Ki (nM) Sig2R.

For `CN(CCCO)C1CCCc2ccc(-c3ccc(C(F)(F)F)cc3)cc21` (stereo not drawn) [MDW-1-144, 3-(Methyl(7-(4-(trifluoromethyl)phenyl)-1,2,3,4-tetrahydronaphthalen-1-yl)amino)propan-1-ol], the inhibitory constant (Ki) at sigma 1 receptor (Table 5, Cheng-Prusoff from best fit IC50, read-out: Ki Sigma 1) was 1270 nM; at MOR, 307 nM; at 5-HT2B, 3590 nM; on H2 it was 327 nM; at KOR it was 154 nM; on D5, above 10000 nM. For the same molecule, the Ki on Alpha2B is 524 nM; on 5-ht5a, above 10000 nM; at 5-HT7 it was 2400 nM; on sigma 2 receptor (setting [1]) it was 50 nM.
As for `CCN(CC)C(=O)CCN1CCN(c2ccc3c(c2)C(N(C)C(=O)OCc2ccccc2)CCC3)CC1` (stereo not drawn) [MDW-1-213, Benzyl (7-(4-(3-(diethylamino)-3-oxopropyl)piperazin-1-yl)-1,2,3,4-tetrahydronaphthalen-1-yl)(methyl)carbamate], the Ki on 5-HT2A stood at 957 nM; on sigma 1 receptor (setting [2]) it was 2100 nM; on D4 it was 319 nM; on 5-HT6 it was 932 nM; on 5-HT2B, 692 nM; at H2, 333 nM. The Ki on M4 was 3280 nM; on D1, 4050 nM; at PBR, 1200 nM; at 5-HT1A, 335 nM; at SERT it was above 10000 nM; on KOR it was 5350 nM. The Ki on 5-HT1D is 1360 nM; at 5-ht5a it was 1880 nM; on 5-HT7, 828 nM; on 5-HT2C, 2630 nM; on 5-HT1B, 317 nM; at sigma 2 receptor (setting [3]) it was 7 nM. For the same molecule, the Ki on sigma 2 receptor (setting [1]) turned out to be 7.2 nM; on D3, 852 nM. Moreover, the “Ki ratio Sig1R/Sig2R” value on sigma 2 receptor came to 292.
Take `CCCN1CCN(c2ccc3c(c2)C(N(C)C(=O)OCc2ccccc2)CCC3)CC1` (stereo not drawn) [MDW-2-76, Benzyl methyl(7-(4-propylpiperazin-1-yl)-1,2,3,4-tetrahydronaphthalen-1-yl)carbamate]: the Ki amounted to 315 nM on 5-HT2A; 6620 nM at M5; 1350 nM at H3; 200 nM at sigma 1 receptor (setting [2]); 6660 nM at D4; 2600 nM on Alpha1D. For the same molecule, the Ki came out at 778 nM at 5-HT6; 100 nM at 5-HT2B; 302 nM on H2; 690 nM at D1; 8330 nM at PBR; 156 nM on 5-HT1A. Further, the Ki at Alpha1A was found to be 2360 nM; on H1, 20 nM; at D5 it was 3960 nM; on 5-HT1D, 135 nM; at Alpha2B it was 3330 nM; at Alpha2A, 1030 nM. Moreover, the Ki at 5-HT7 amounted to 459 nM; on 5-HT2C, 762 nM; on 5-HT1B, 362 nM; at sigma 2 receptor (setting [3]) it was 6 nM; at sigma 2 receptor (setting [1]) it was 5.5 nM; at H4, 5880 nM. In addition, the affinity on D3 corresponds to a Ki of 438 nM. The “Ki ratio Sig1R/Sig2R” value on sigma 2 receptor is listed as 36.
